Reference: patent publication US4597900A, “Des^2 -glycine^8 -des^22 -calcitonin” (Armour Pharmaceutical Co., priority 1983, dated 1986)
Where a SMILES comes first, the peptide text is derived from it. Bridges are numbered along the chain shown (N, C = ends).

Tested on: serum calcium concentration
Experiment: Biological assay of calcitonin analogs in vivo: reduction of serum calcium concentration, 2x2 parallel line assay
Design: species or system Rats
Procedure: The biological potency of [Des-Serine^2 -Glycine^8 -Des-Tyrosine^22 ]salmon calcitonin was determined by comparing the reduction of serum calcium concentration which followed administration by graded doses of [Des-Ser^2 -Gly^8 -Des-Tyr^22 ]SCT and synthetic salmon calcitonin standard. Rats were divided into four groups of seven animals, and each group was assigned at random to a dose of standard or test solution. Low and high doses were chosen from the linear portion of the dose-response curve. For the salmon calcitonin standard, the values were 0.7 and 2.1 ng. peptide/100 g. body weight (BW). This dose approximates 3 and 9 MU/100 g. BW. Peptides were given by subcutaneous injection (0.2 ml/100 g. BW) and blood was withdrawn 1 hour later for serum calcium determination. Sera are processed and analyzed within two hours of collection. […]. Results were analyzed by a 2×2 parallel line assay [Gaddum, J. H., J. Pharm. Pharmacol., 6, 345 (1953)]. The standard salmon calcitonin used was independently determined to contain greater than 4,000 IU/mg. [Des-Ser^2 -Gly^8 -Des-Tyr^22 ]SCT assayed at 6900 IU/mg.

SMILES | biological potency (reduction of serum calcium concentration) (rats, subcutaneous injection, blood withdrawn 1 hour later, compared with synthetic salmon calcitonin standard) [IU/mg] | potency of standard, independently determined (standard salmon calcitonin used in the assay)
CC(C)C[C@H](NC(=O)CNC(=O)[C@@H]1CSSC[C@H](N)C(=O)N[C@@H](CC(N)=O)C(=O)N[C@@H](CC(C)C)C(=O)N[C@@H](CO)C(=O)N[C@@H]([C@@H](C)O)C(=O)N1)C(=O)NCC(=O)N[C@@H](CCCCN)C(=O)N[C@@H](CC(C)C)C(=O)N[C@@H](CO)C(=O)N[C@@H](CCC(N)=O)C(=O)N[C@@H](CCC(=O)O)C(=O)N[C@@H](CC(C)C)C(=O)N[C@@H](Cc1c[nH]cn1)C(=O)N[C@@H](CCCCN)C(=O)N[C@@H](CC(C)C)C(=O)N[C@@H](CCC(N)=O)C(=O)N[C@H](C(=O)N1CCC[C@H]1C(=O)N[C@@H](CCCNC(=N)N)C(=O)N[C@H](C(=O)N[C@@H](CC(N)=O)C(=O)N[C@H](C(=O)NCC(=O)N[C@@H](CO)C(=O)NCC(=O)N[C@H](C(=O)N1CCC[C@H]1C(N)=O)[C@@H](C)O)[C@@H](C)O)[C@@H](C)O)[C@@H](C)O [[Des-Ser^2 -Gly^8 -Des-Tyr^22]SCT, [Des-Serine^2 -Glycine^8 -Des-Tyrosine^22]salmon calcitonin] (H-CNLSTCGLGKLSQELHKLQTPRTNTGSGTP-NH2; disulfide 1-6) | 6900 | 
CC(C)C[C@H](NC(=O)[C@H](CCCCN)NC(=O)CNC(=O)[C@H](CC(C)C)NC(=O)[C@@H](NC(=O)[C@@H]1CSSC[C@H](N)C(=O)N[C@@H](CO)C(=O)N[C@@H](CC(N)=O)C(=O)N[C@@H](CC(C)C)C(=O)N[C@@H](CO)C(=O)N[C@@H]([C@@H](C)O)C(=O)N1)C(C)C)C(=O)N[C@@H](CO)C(=O)N[C@@H](CCC(N)=O)C(=O)N[C@@H](CCC(=O)O)C(=O)N[C@@H](CC(C)C)C(=O)N[C@@H](Cc1c[nH]cn1)C(=O)N[C@@H](CCCCN)C(=O)N[C@@H](CC(C)C)C(=O)N[C@@H](CCC(N)=O)C(=O)N[C@H](C(=O)N[C@@H](Cc1ccc(O)cc1)C(=O)N1CCC[C@H]1C(=O)N[C@@H](CCCNC(=N)N)C(=O)N[C@H](C(=O)N[C@@H](CC(N)=O)C(=O)N[C@H](C(=O)NCC(=O)N[C@@H](CO)C(=O)NCC(=O)N[C@H](C(=O)N1CCC[C@H]1C(N)=O)[C@@H](C)O)[C@@H](C)O)[C@@H](C)O)[C@@H](C)O [standard salmon calcitonin, Salmon calcitonin] |  | greater than 4,000 IU/mg
